Patent US20230339915A1 (Vertex Pharmaceuticals Incorporated, priority 2020, published 2023)

Assays:
[1] = biological target: NL20 human bronchial epithelial cells expressing human Z-AAT (Homo sapiens (Human), UniProt P01009, E366K); assay: AAT Function Assay (MSD Assay NL20-SI Cell Line); type: cell-based; settings: functionally active AAT (AAT-hNE complex, MSD) in supernatant of NL20 cells expressing human Z-AAT; read-out: NL20 Functional EC50
Description: A. AAT Function Assay (MSD Assay NL20-SI Cell Line)
Alpha-1 antitrypsin (AAT) is a SERpIN (serine protease inhibitor) that inactivates enzymes by binding to them covalently. This assay measured the amount of functionally active AAT in a sample in the presence of the disclosed Compounds 1-227 by determining the ability of AAT to form an irreversible complex with human neutrophil Elastase (hNE). In practice, the sample (cell supernatant, blood sample, or other) was incubated with excess hNE to allow AAT-Elastase complex to be formed with all functional AAT in the sample. This complex was then captured to a microplate coated with an anti-AAT antibody. The complex captured to the plate was detected with a labeled anti-Elastase antibody and quantitated using a set of AAT standards spanning the concentration range present in the sample. Meso Scale Discovery (MSD) plate reader, Sulfo-tag labeling, and microplates were used to provide high sensitivity and wide dynamic range.
Instrument(S): • Meso Sector S600 • Bravo • Washer dispenser • Multidrop Combi
Day 1 Cell Culture • 1. Harvest NL20 human bronchial epithelial cells expressing human Z-AAT in OptiMEM™ containing Pen/Strep (P/S) • 2. Seed at 16,000 cells/well in 30 μL (384 well plate) • 3. Centrifuge plates briefly up to speed (1200 rpm) and place into 37° C. incubator overnight
Day 2: Compound Addition and Coating Plates with Capture Antibody
Compound Addition: • 1. Dispense 40 μL of OptiMEM™ (P/S) with doxycycline (1:1000 stock=0.1 μM final) to each well of the compound plate using a multidrop Combi in hood • 2. Remove cell plate from incubator, flip/blot and take immediately to Bravo to transfer compounds • 3. Return plates to incubator overnight
Coat MSD Plates • 1. Dilute capture antibody (Polyclonal Goat anti-AAT) to 5 μg/mL (1:200) in PBS (no BSA). • 2. Dispense 25 μL of diluted capture antibody into all wells of MSD 384-well High Bind plate using the Multidrop equipped with a standard cassette. • 3. Incubate overnight at 4° C.
Prepare Blocker A (BSA) Solutions • 1. Prepare solution of 5% MSD Blocker A (BSA) following the manufacturer's instructions. • 2. Further dilute the 5% MSD Blocker A in PBS to 1% (Blocker A) as needed.
Block Plates • 1. Wash plate 1× with 50 μL Wash buffer (PBS+0.5% Tween 20), and adds 35 μL 5% Block A buffer to block non-specific binding on washer dispenser • 2. Rotate plates on shaker for 1 hour at 600 rpm
Prepare M-AA T Standards • 1. Dilute M-AAT stock to 1.6 μg/mL in 1% BSA Blocker A (Stock in −70° C.); then prepare 12×1:2 serial dilutions in 1% Blocker A • 2. The top starting final concentration on MSD plate is 320 ng/mL. These dilutions correspond to a final concentration of 320, 160, 80, 40, 20, 10, 5, 2.5, 1.25, 0.625, 0.312, 0.156 ng/mL.
Dilution Plate • 1. Add 80 μL of 1% Assay buffer to all wells except columns 1/24 (standards) with Multidrop Combi • 2. Add diluted standards to columns 1 and 24 • 3. Centrifuge dilution plates 1200 rpm briefly
Cell Plate • 1. Aspirate columns which will have the standards from the cell plates in the hood using 16-pin aspirator
Prepare Human Neutrophil Elastase (hNE) • 1. Prepare 1 μg/mL Human Neutrophil Elastase by diluting in 1% Blocker A. • a. Small 100 μg vial—add 1 mL PBS (100 μg/mL) • i. This can then be diluted 1:100 in 1% Assay Buffer for a final 1 μg/mL concentration
MSD—add hNE (20 μL/well) • 1. After the MSD plate has blocked for at least 1 hour, wash plate 1× with 50 μL Wash buffer (PBS+0.5% Tween 20) and then add 20 μL hNE to each well
Bravo—Cell Plate—Dilution Plate—MSD Plate
Using the Bravo aspirate 10 μL from the cell plate, transfer to the dilution plate (9-fold dilution) • 1. Mix 25 μL 3×, then aspirate 5 μL, transfer to MSD plate (5-fold dilution) • 2. Mix 10 μL 3×. Total dilution is 45 fold. • 3. Shake plates at 600 rpm for 1.5 hours
Add Functional Detection hNE Antibody • 1. Wash plate 1× with wash buffer • 2. […]

[2] = biological target: purified Z-AAT protein from human plasma (Homo sapiens (Human), UniProt P01009, E366K); assay: Biochemical Assay (Z-AAT Elastase Activity Assay); settings: purified Z-AAT pre-incubated with compound 1 hour, then human neutrophil elastase and fluorescent substrate
Chain of purified Z-AAT protein from human plasma (P01009 25-418 E366K limits assumed): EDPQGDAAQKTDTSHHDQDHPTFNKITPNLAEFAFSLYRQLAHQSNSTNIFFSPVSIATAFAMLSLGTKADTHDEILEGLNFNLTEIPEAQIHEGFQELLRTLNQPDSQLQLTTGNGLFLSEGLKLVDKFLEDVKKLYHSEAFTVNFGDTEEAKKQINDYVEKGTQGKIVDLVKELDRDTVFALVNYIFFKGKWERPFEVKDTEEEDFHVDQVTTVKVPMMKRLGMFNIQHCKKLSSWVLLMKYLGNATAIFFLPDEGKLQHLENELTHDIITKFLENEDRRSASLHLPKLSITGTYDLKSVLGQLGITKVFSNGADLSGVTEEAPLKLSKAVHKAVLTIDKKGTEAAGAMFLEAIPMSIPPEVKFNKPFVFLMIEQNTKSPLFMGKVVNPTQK
Excerpt: B. Biochemical Assay (Z-AAT Elastase Activity Assay)
This assay measured the modulation of Compounds 1-227 on Z-AAT SERpIN activity using purified Z-AAT protein and purified human neutrophil elastase (hNE). Normally, when active monomeric Z-AAT encounters a protease such as trypsin or elastase, it forms a 1:1 covalent “suicide” complex in which both the AAT and protease are irreversibly inactivated. However, compounds binding to Z-AAT can lead to a decrease in SERpIN activity. In such cases, when a protease encounters compound-bound Z-AAT, the protease cleaves and inactivates Z-AAT without itself being inactivated.
Reagents • PBS buffer (media prep)+0.01% BRIJ35 detergent (Calbiochem catalog #203728) Opti-MEM media (Fisher 11058-021) • Human neutrophil elastase (hNE, Athens Research #16-14-051200) • 3.4 μM stock (0.1 mg/mL) prepared in 50 mM Na Acetate, pH 5.5, 150 mM NaCl, stored at −80° C. • Elastase substrate V (ES V, fluorescent peptide substrate MeOSuc-Ala-Ala-Pro-Val-AMC, Calbiochem catalog #324740) • 20 mM stock in DMSO, stored at −20° C. • Purified Z-AAT protein from human plasma; • 12.9 μM (0.67 mg/mL) Z-AAT Vertex Cambridge Sample 4942, from patient • #061-SSN, stored at −80 C
Plates • Corning 4511 (384 well black low volume)
Instruments • PerkinElmer® EnVision™
Pre-Incubation of Z-AAT with Compounds • 1. 7.5 μL of Z-AAT (20 nM) was incubated with compounds 1-227 in a GCA plate for 1 hour at room temperature
Addition of hNE • 1. 7.5 ul of HNE solution (3 nM in PBS+0.01% BRIJ35) added into GCA plate • 2. Incubate plate for 30 minutes to allow Z-AAT/HNE suicide complex formation.
Addition of Substrate and Read Plate on PE Envision • 1. 7.5 μL of substrate (300 μM solution of elastase substrate (ES V) in PBS+0.01% BRIJ35) dispensed per well into GCA plate • 2. Immediately read on Envision.

Chain of NL20 human bronchial epithelial cells expressing human Z-AAT (P01009 25-418 E366K limits assumed): as above

SMILES | EC50 [1] [nM] | IC50 [2] [nM]
Cc1cc(-n2c(C(C)C)c(CC(C)C(=O)O)c3cc(O)ccc32)ccc1F (single isomer, unassigned) [Compound 102] | > 2000 | > 30000
Cc1cc(-n2c(C(C)C)c(C3CC(C(=O)O)C3)c3cc(O)ccc32)ccc1F (stereo not shown) [Compound 6] | > 2000 | > 30000
COC[C@]1(C(=O)O)C[C@@H](c2c(C3CCOCC3)n(-c3ccc(F)c(C)c3)c3ccc(O)cc32)C1 [Compound 121] | > 2000 | > 30000
Cc1cc(-n2c(C3CCOCC3)c(C[C@H]3CC[C@H](C(=O)O)CC3)c3cc(O)ccc32)ccc1F [Compound 5] | > 2000 | > 30000
N#Cc1c(C2CCCO2)n(-c2ccc(F)cc2)c2ccc(O)cc12 (stereo not shown) [Compound 198] | > 2000 | > 30000
O=C(O)[C@]1(C(F)(F)F)C[C@@H](c2c(C3CCOCC3)n(-c3ccc(F)c(F)c3)c3ccc(O)cc32)C1 [Compound 53] | > 2000 | > 30000
Cc1cc(-n2c([C@H]3CCOC3)c([C@H]3C[C@H](C(=O)O)C3)c3cc(O)ccc32)ccc1F [Compound 86] | > 2000 | > 30000
Cc1cc(-n2c(C3CCS(=O)(=O)CC3)c(C[C@H]3CC[C@H](C(=O)O)CC3)c3cc(O)ccc32)ccc1F [Compound 44] | > 2000 | > 30000
Cc1cc(-n2c(C(C)C)c(CC(C)C(=O)O)c3cc(O)ccc32)ccc1F (stereo not shown) [Compound 26] | > 2000 | > 30000
Cc1cc(-n2c(C3CCOCC3)c([C@H]3C[C@@](CO)(C(=O)O)C3)c3cc(O)ccc32)ccc1F [Compound 109] | > 2000 | > 30000

Further lines, results first:

EC50 [1] [nM] | IC50 [2] [nM] | SMILES
> 2000 | > 30000 | Cc1cc(-n2c(C(C)C)c([C@H]3C[C@H](CO)C3)c3cc(O)ccc32)ccc1F [Compound 225, Trans-1-(4-fluoro-3-methyl-phenyl)-3-[3-(hydroxymethyl)cyclobutyl]-2-isopropyl-indol-5-ol]
> 2000 | > 5000 | Cc1cc(-n2c(C(C)C)c(CCC(F)(F)C(=O)O)c3cc(O)ccc32)ccc1F [Compound 59]
> 2000 | > 30000 | Cc1cc(-n2c(C(C)C)c([C@@H]3CC[C@@H]3CO)c3cc(O)ccc32)ccc1F [Compound 227]
> 2000 | > 30000 | CC(C)(C)OC(=O)N1CC(c2c(C#N)c3cc(O)ccc3n2-c2ccc(F)cc2)C1 [Compound 195]
500 to 2000 | > 30000 | O=C(O)[C@H]1CC2(C1)C[C@H](c1c(C3CCOCC3)n(-c3ccc(F)cc3)c3ccc(O)cc31)C2 (stereo partly shown) [Compound 51]
500 to 2000 | > 5000 | CC(C)c1c([C@H]2C[C@H](C(=O)O)C2)c2cc(O)ccc2n1-c1ccc(F)c(Cl)c1 [Compound 77]
< 500 | > 5000 | O=C(O)[C@H]1CC2(C1)C[C@H](c1c(C3CCOCC3)n(-c3ccc(F)c(Cl)c3)c3ccc(O)cc31)C2 (stereo partly shown) [Compound 32]
500 to 2000 | > 30000 | CO[C@]1(C(=O)O)C[C@H](c2c(C(C)C)n(-c3ccc(F)c(C)c3)c3ccc(O)cc32)C1 [Compound 66]
500 to 2000 | > 5000 | Cc1cc(-n2c(C3CCOCC3)c([C@H]3C[C@](CF)(C(=O)O)C3)c3cc(O)ccc32)ccc1F [Compound 108]
500 to 2000 | > 30000 | Cc1cc(-n2c(C3CCOCC3)c([C@H]3CC[C@H](C(=O)O)CC3)c3cc(O)ccc32)ccc1F [Compound 56]
500 to 2000 | > 5000 | Cc1cc(-n2c(C(C)C)c([C@H]3C[C@](C(=O)O)(C(F)(F)F)C3)c3cc(O)ccc32)ccc1F [Compound 61]
< 500 | > 5000 | Cc1cc(-n2c(C(C)C)c([C@H]3C[C@](C)(C(=O)O)C3)c3cc(O)ccc32)ccc1F [Compound 95]
500 to 2000 | > 30000 | Cc1cc(-n2c(C3CCOCC3)c(CC3CC(C(=O)O)C3)c3cc(O)ccc32)ccc1F (stereo not shown) [Compound 25]
